Experimental data: patent US8853246B2 (Dow AgroSciences LLC, priority 2009, dated 2014)

How the values were obtained:
[1] = test system: Sweetpotato Whitefly-Crawler (Bemisia Tabaci); assay: Insecticidal test for sweetpotato whitefly-crawler in foliar spray assay (col. BEMITA); format: in vivo; settings: Bemisia tabaci, sweetpotato whitefly-crawler, read-out: BEMITA 200 ppm (Corrected % Control, rating)
Experimental: (§1) The compounds were tested against cotton aphid, green peach aphid, and sweet potato whitefly using procedures described in the following examples and reported in Table 2.
(§2) In each case of Table 2, the rating scale is as follows at 200 ppm.
Insecticidal Test for Sweetpotato Whitefly-Crawler (Bemisia Tabaci) in Foliar Spray Assay
Cotton plants grown in 3-inch pots, with 1 small (3-5 cm) true leaf, were used as test substrate. The plants were placed in a room with whitefly adults. Adults were allowed to deposit eggs for 2-3 days. After a 2-3 day egg-laying period, plants were taken from the adult whitefly room. Adults were blown off leaves using a hand-held Devilbiss sprayer (23 psi). Plants with egg infestation (100-300 eggs per plant) were placed in a holding room for 5-6 days at 82° F. and 50% RH for egg hatch and crawler stage to develop. Four cotton plants were used for each treatment. Compounds (2 mg) were dissolved in 1 mL of acetone solvent, forming stock solutions of 2000 ppm. The stock solutions were diluted 10× with 0.025% Tween 20 in H2O to obtain a test solution at 200 ppm. A hand-held Devilbiss sprayer was used for spraying a solution to both sides of cotton leaf until runoff. Reference plants (solvent check) were sprayed with the diluent only. Treated plants were held in a holding room for 8-9 days at approximately 82° F. and 50% RH prior to grading. Evaluation was conducted by counting the number of live nymphs per plant under a microscope. Insecticidal activity was measured by using Abbott's correction formula and presented in Table 2 (see col. “BEMITA”): Corrected % Control=100*(X−Y)/X • where X=No. of live nymphs on solvent check plants • Y=No. of live nymphs on treated plants Pesticidally Acceptable Acid Addition Salts, Salt Derivatives, Solvates, Ester Derivatives, Polymorphs, Isotopes and Radionuclides

[2] = test system: Green Peach Aphid (Myzus Persicae); assay: Insecticidal test for green peach aphid in foliar spray assay (col. MYZUPE); format: in vivo; settings: Myzus persicae, 72 h, green peach aphid, read-out: MYZUPE 200 ppm (Corrected % Control, rating)
Experimental: as §1, §2
Insecticidal Test for Green Peach Aphid (Myzus Persicae) in Foliar Spray Assay
Cabbage seedlings grown in 3-inch pots, with 2-3 small (3-5 cm) true leaves, were used as test substrate. The seedlings were infested with 20-50 green peach aphids (wingless adult and nymph) one day prior to chemical application. Four pots with individual seedlings were used for each treatment. Compounds (2 mg) were dissolved in 2 mL of acetone/methanol (1:1) solvent, forming stock solutions of 1000 ppm. The stock solutions were diluted 5× with 0.025% Tween 20 in H2O to obtain a test solution at 200 ppm. A hand-held Devilbiss sprayer was used for spraying a solution to both sides of cabbage leaves until runoff. Reference plants (solvent check) were sprayed with the diluent only. Treated plants were held in a holding room for three days at approximately 25° C. and 40% relative humidity (RH) prior to grading. Evaluation was conducted by counting the number of live aphids per plant under a microscope. Corrected % Control=100*(X−Y)/X • where X=No. of live aphids on solvent check plants • Y=No. of live aphids on treated plants

| Compound | pest or weed control at 200 ppm [1] | pest or weed control at 200 ppm [2] |
| --- | --- | --- |
| Cc1nc(-c2cncc(F)c2)sc1N(C)C(=O)C(C)CS(=O)(Cc1ccc(Cl)nc1)=NC#N (stereo not drawn) [Compound 167] | 80 to 100% | < 80% |
| Cc1nc(-c2cncc(F)c2)sc1N(C)C(=O)C(C)CS(C)(=O)=NC#N (stereo not drawn) [Compound 168] | 80 to 100% | 80 to 100% |
| CCOC(=O)c1cncc(-c2nc(C)c(NC(=O)C(C)CSC)s2)c1 (stereo not drawn) [Compound 170] | < 80% | < 80% |
| CSCC(C)C(=O)Nc1sc(-c2cncc(C)c2)nc1C (stereo not drawn) [Compound 171, 2-methyl-N-[4-methyl-2-(5-methyl-pyridin-3-yl)-thiazol-5-yl]-3-methylsulfanyl-propionamide] | < 80% | 80 to 100% |
| CSCC(C)C(=O)N(C(=O)C(C)CSC)c1sc(-c2cccnc2)nc1C (stereo not drawn) [Compound 173] | 80 to 100% | 80 to 100% |
| CN(C(=O)CC[S+](C)[O-])c1sc(-c2cccnc2)nc1Cl (stereo not drawn) [Compound 174] | 80 to 100% | 80 to 100% |
| COc1cncc(-c2nc(C)c(N(C(=O)OC(C)(C)C)C(=O)C(C)CSC)s2)c1 (stereo not drawn) [Compound 176] | < 80% | < 80% |
| CSCC(C)C(=S)Nc1sc(-c2cccnc2)nc1C (stereo not drawn) [Compound 180, 2-methyl-N-(4-methyl-2-pyridin-3-yl-thiazol-5-yl)-3-methylsulfanyl-thiopropionamide] | 80 to 100% | 80 to 100% |
| CSCC(C)C(=O)N(C(=O)C(C)C)c1sc(-c2cccnc2)nc1C (stereo not drawn) [Compound 183] | 80 to 100% | 80 to 100% |
| CSCC(C)C(=O)N(C(C)=O)c1sc(-c2cccnc2)nc1C (stereo not drawn) [Compound 184] | 80 to 100% | 80 to 100% |
| CSCCC(=O)N(C(=O)CCSC)c1sc(-c2cncc(F)c2)nc1C [Compound 185] | 80 to 100% | 80 to 100% |
| CSCC(C)C(=O)N(C(=O)C(C)CSC)c1sc(-c2cncc(F)c2)nc1C (stereo not drawn) [Compound 188] | 80 to 100% | 80 to 100% |
| COC(=O)CCC(=O)N(C(=O)C(C)CSC)c1sc(-c2cccnc2)nc1C (stereo not drawn) [Compound 189] | 80 to 100% | 80 to 100% |
| Cc1nc(-c2cncc(F)c2)sc1N(C)C(=O)C(C)CSCc1ccc(Cl)cc1 (stereo not drawn) [Compound 190] | 80 to 100% | 80 to 100% |
| CCCC(C)(C)OC(=O)Nc1sc(-c2cccnc2)nc1C [Compound 192] | 80 to 100% | 80 to 100% |
| Cc1nc(-c2cccnc2)sc1N(C)C(=O)[C@H](C)NC(=O)OC(C)(C)C [Compound 194] | 80 to 100% | 80 to 100% |
| CSCC(C)C(=O)N(C(=O)C(C)(C)CSC)c1sc(-c2cccnc2)nc1C (stereo not drawn) [Compound 195] | 80 to 100% | 80 to 100% |
| COCN(C(=O)C(C)CSC)c1sc(-c2cccnc2)nc1C (stereo not drawn) [Compound 196] | 80 to 100% | 80 to 100% |
| Cc1nc(-c2cccnc2)sc1NC(=O)OC1(C)CCCCC1 [Compound 198] | 80 to 100% | 80 to 100% |
| CSCC(C)C(=O)N(C(=O)C(C)C)c1sc(-c2cncc(F)c2)nc1C (stereo not drawn) [Compound 200] | 80 to 100% | 80 to 100% |
| CSCC(C)C(=O)N(COC(=O)c1ccccc1)c1sc(-c2cccnc2)nc1C (stereo not drawn) [Compound 203, Benzoic acid [(2-methyl-3-methylsulfanyl-propionyl)-(4-methyl-2-pyridin-3-yl-thiazol-5-yl)-amino]-methyl ester] | 80 to 100% | 80 to 100% |
| C=CC(=O)N(C(=O)C(C)CSC)c1sc(-c2cccnc2)nc1C (stereo not drawn) [Compound 204] | < 80% | 80 to 100% |
| Cc1nc(-c2cccnc2)sc1N(C)C(=O)C1CCSC1 (stereo not drawn) [Compound 206] | 80 to 100% | 80 to 100% |
| Cc1nc(-c2cccnc2)sc1N1CCCC1=O [Compound 211] | 80 to 100% | 80 to 100% |
